Data set [1] can be described thus: In vitro drug release by dialysis in PBS. To be noted: from BT/BH solution; within 4 h, PBS pH 7.4, 37 °C, sink condition. The format is physicochemical. The procedure: The tube was then immersed in 5 mL of PBS, and the set was incubated at 37 °C with shaking (100 rpm). At predetermined intervals, 100 μL of the release medium (PBS) was withdrawn and replaced with equal volume of fresh medium. […] These experiments were carried out in triplicate.
Because the BM/BX SDNs are composed of hydrophobic drugs, the release was expected to slow down in comparison to their hydrophilic counterparts BT and BH.

Data set [2] can be described thus: Ex vivo cornea permeation (Franz diffusion cell). In kind it is in vitro ADME. Particulars: from BT/BH solution, within 4 h, 37 °C, rabbit cornea. The procedure:
After using dextran to confirm the intactness of cornea extracted from fresh rabbit eyes, that cornea was mounted between the donor chamber and receptor chamber of a Franz diffusion cell system. […] The set was incubated at 37 °C. At predetermined intervals up to 12 h, an aliquot of 100 μL was withdrawn from the receptor chamber and analyzed by LC-MS. An equal volume of fresh PBS was supplemented to the receptor chamber following each sampling. FITC-labeled Dextran was tested to confirm the intactness of the cornea, and the permeation of the FITC-labeled Dextran was quantified by measuring the fluorescence intensity of FITC (Emission: 525 nm, Excitation: 490 nm) using a microplate reader.

The conditions of data set [3]: eye drops, salt form; background statement; cited from earlier work.

Counter-ions that a name gives are not always drawn.

As to `CC(C)NCC(O)COc1ccc(CCOCC2CC2)cc1` (stereo not drawn) [BH, betaxolol hydrochloride], the BH released in data set [1] is recorded as greater than 70%. The “hydrophilic counterpart penetrated across the cornea” value in data set [2] is recorded as “less than 10%”. For the same molecule, the bioavailability result in data set [3] is “less than 5%”.
Turning to `Brc1c(NC2=NCCN2)ccc2nccnc12.O=C(O)C(O)C(O)C(=O)O` [BT, brimonidine tartrate], in data set [1], the BT released result is given as “more than 60%”. Further, the “hydrophilic counterpart penetrated across the cornea” value in data set [2] is “less than 10%”. In addition, the bioavailability result in data set [3] is recorded as “less than 5%”.

The record behind these values is patent publication US20260364024A1, “A SCALABLE AND CONTINUOUS METHOD TO PREPARE SOLID DRUG NANOPARTICLES FOR OCULAR DISEASE THERAPY” (The Curators of the University of Missouri, priority 2023, published 2026).
